Measurements: PMC9843700 (Nature biotechnology, 2021)

Tests used:
[1] = tested on: SARS CoV-2 (USA_WA1/2020); format: cell-based
cell viability = assay: ATP content assay for cell viability and compound cytotoxicity
[2] = tested on: Ebola virus (EBOV/May-eGFP); assay: microbe, parasite or virus in culture; format: cell-based; conditions: Zaire ebolavirus, read-out: IC50, EBOV infection inhibition

SMILES | selectivity index (SI) [1] | IC50 ([1]; read-out: IC50, SARS-CoV-2 CPE assay) | inhibition of cell viability (slight cytotoxicity) (cell viability; maximal effect) | IC50 (cell viability; read-out: cytotoxicity IC50 (cell viability), counter assay to CPE) | IC50 [2]
Cc1cccc(C=NNc2cc(N3CCOCC3)nc(N3CCOCC3)n2)c1 [MLS000699212-03, Benzaldehyde, 3-methyl-, 2-(2,6-di-4-morpholinyl-4-pyrimidinyl) hydrazone] | 28 | 0.5 µM | 55% | 14 µM | 
CCOC(=O)c1c(CSc2ccccc2)n(C)c2cc(Br)c(O)c(CN(C)C)c12 [umifenovir] |  |  |  |  | ≤ 5 µM
CC(C(O)c1ccccc1)N(C)CCOC(c1ccccc1)c1ccccc1 (stereo not drawn) [difeterol] |  |  |  |  | ≤ 5 µM
